Series [1] is described as follows: Cytotoxicity against human Huh-Mono cells after 3 days by MTT assay. The series is classed as cell-based. Background: Formazan colour is commonly taken as a measure of viable cells.
Series [2] relates to Hepatitis C virus. Kind of series: Antiviral activity against Hepatitis C virus genotype 1b infected in human Huh-Mono cells assessed as reduction in replicon RNA after 4 days by RT-qPCR analysis. In kind it is functional, organism-based, Hepacivirus hominis. The conditions noted are these: 96 h. For orientation: Replicon systems follow genome replication, usually without infectious particles.

Series [3] concerns Hepatitis C virus. Kind of series: Antiviral activity against Hepatitis C virus genotype 1b infected in human Huh5-2 cells assessed as reduction in replicon RNA after 4 days by luciferase assay. The series is classed as functional, organism-based, Hepacivirus hominis. As to conditions: Huh-5-2, 96 h.
Series [4] is described as follows: Cytotoxicity against human HuH6 cells after 3 days by MTT assay. In kind it is cell-based.
The test system of series [5] is Hepatitis C virus. Kind of series: Antiviral activity against Hepatitis C virus genotype 1b infected in human HuH6 cells assessed as reduction in replicon RNA after 4days by RT-qPCR analysis. The series is classed as functional, organism-based, Hepacivirus hominis. As to conditions: HuH-6, 96 h.
Series [6] concerns Hepatitis C virus. Kind of series: Antiviral activity against Hepatitis C virus genotype 1b infected in human Huh-9-13 cells assessed as reduction in replicon RNA after 4days by RT-qPCR analysis. In kind it is functional, organism-based, Hepacivirus hominis. The conditions noted are these: 96 h.
Series [7] can be described thus: Cytotoxicity against human Huh5-2 cells after 3 days by MTT assay. In kind it is cell-based, Huh-5-2.
Series [8] in a line: Cytotoxicity against human Huh-9-13 cells after 3 days by MTT assay. The series is classed as cell-based.

In the case of `C[C@@]1(F)[C@H](O)[C@@H](CO)O[C@@H]1n1ccc(N)nc1=O`, the CC50 at 72 h in series [1], in series [4], in series [7] and in series [8] was greater than 33000 nM in each case. The EC50 in the series with Hepatitis C virus [2] was found to be 5000 nM; in the series on Hepatitis C virus [3] it was 2100 nM; in the series on Hepatitis C virus [5] it was 1100 nM; in the series on Hepatitis C virus [6], 1700 nM.
As for `O=C(O)CNc1ccc(-c2ccc(Cl)cc2)c(COc2ccc(-c3nc4cc(C(=O)O)ccc4n3C3CCCCC3)cc2)c1`, the CC50 at 72 h was 24000 nM in series [1], 21000 nM in series [4], 21500 nM in series [7] and 24000 nM in series [8]. Further, the concentration giving a half-maximal response (EC50) in the series with Hepatitis C virus [2] worked out at 800 nM; in the series on Hepatitis C virus [3], 1100 nM; with Hepatitis C virus [5] it was 1200 nM; in the series on Hepatitis C virus [6], 1500 nM.
In the case of `CC(C)CCn1c(=O)c(C2=NS(=O)(=O)c3ccccc3N2)c(O)c2ccccc21`, the cytotoxic concentration (CC50) at 72 h in series [1], in series [4], in series [7] and in series [8] was greater than 33000 nM throughout. In addition, the EC50 with Hepatitis C virus [2] came out at 1800 nM; in the series on Hepatitis C virus [3] it was 1800 nM; in the series with Hepatitis C virus [5], 11300 nM; with Hepatitis C virus [6] it was 600 nM.
Take `CCC[C@H](NC(=O)[C@@H]1[C@H]2CCC[C@H]2CN1C(=O)[C@@H](NC(=O)[C@@H](NC(=O)c1cnccn1)C1CCCCC1)C(C)(C)C)C(=O)C(=O)NC1CC1`: the 50% cytotoxic concentration (CC50) at 72 h in series [1] was greater than 33000 nM; in series [4], 25000 nM; in series [7] it was greater than 33000 nM; in series [8], 24000 nM. Also, the EC50 with Hepatitis C virus [2] was 1000 nM; in the series with Hepatitis C virus [3] it was 1000 nM; with Hepatitis C virus [5] it was 1000 nM; in the series on Hepatitis C virus [6], 600 nM.
Turning to `COc1ccc2c(O[C@@H]3C[C@H]4C(=O)N[C@]5(C(=O)O)C[C@H]5/C=C\CCCCC[C@H](NC(=O)OC5CCCC5)C(=O)N4C3)cc(-c3csc(NC(C)C)n3)nc2c1`, the CC50 at 72 h in series [1], in series [4], in series [7] and in series [8] was greater than 3000 nM each time. Besides, the EC50 in the series with Hepatitis C virus [2] is 10 nM; in the series with Hepatitis C virus [3] it was 40 nM; with Hepatitis C virus [5], 4 nM; in the series with Hepatitis C virus [6] it was 15 nM.
Take `C[C@@]1(O)[C@H](O)[C@@H](CO)O[C@H]1n1ccc(N)nc1=O`: the 50% cytotoxic concentration (CC50) at 72 h in series [1] is greater than 33000 nM; in series [4], greater than 33000 nM; in series [7], greater than 33000 nM; in series [8], 25000 nM. In addition, the EC50 stood at 700 nM with Hepatitis C virus [2], 2000 nM with Hepatitis C virus [3], 700 nM in the series with Hepatitis C virus [5] and 400 nM in the series with Hepatitis C virus [6].
Turning to `OC[C@H]1O[C@@H](n2nnc3cc(Cl)c(Cl)cc32)[C@H](O)[C@@H]1O`, the CC50 at 72 h in series [1], in series [4], in series [7] and in series [8] was greater than 100000 nM in each case. The concentration for a half-maximal effect (EC50) was 53000 nM in the series on Hepatitis C virus [2], 10000 nM with Hepatitis C virus [3], 12000 nM with Hepatitis C virus [5] and 34000 nM with Hepatitis C virus [6].
As for `C[C@@]1(O)[C@H](O)[C@@H](CO)O[C@H]1n1cnc2c(N)ncnc21`, the 50% cytotoxic concentration (CC50) at 72 h in series [1] is greater than 33000 nM; in series [4], greater than 33000 nM; in series [7], greater than 33000 nM; in series [8] it was 21000 nM. The EC50 turned out to be 1700 nM with Hepatitis C virus [2], 120 nM in the series on Hepatitis C virus [3], 290 nM in the series on Hepatitis C virus [5] and 400 nM in the series with Hepatitis C virus [6].
As to `[N-]=[N+]=N[C@]1(CO)O[C@@H](n2ccc(N)nc2=O)[C@H](O)[C@@H]1O` [4'-AZIDOCYTIDINE], the CC50 at 72 h in series [1], in series [4], in series [7] and in series [8] was greater than 33000 nM in each case. Besides, the EC50 in the series on Hepatitis C virus [2] is 2200 nM; with Hepatitis C virus [3], 1400 nM; with Hepatitis C virus [5] it was 6000 nM; with Hepatitis C virus [6], 1600 nM.
Consider `C/C=C/C[C@@H](C)[C@@H](O)[C@H]1C(=O)N[C@@H](CC)C(=O)N(C)[C@H](C)C(=O)N(CC)[C@@H](C(C)C)C(=O)N[C@@H](C(C)C)C(=O)N(C)[C@@H](CC(C)C)C(=O)N[C@@H](C)C(=O)N[C@H](C)C(=O)N(C)[C@@H](CC(C)C)C(=O)N(C)[C@@H](CC(C)C)C(=O)N(C)[C@@H](C(C)C)C(=O)N1C` [ALISPORIVIR], for which the cytotoxic concentration (CC50) at 72 h in series [1], in series [4], in series [7] and in series [8] was greater than 3000 nM each time. For the same compound, the EC50 is 40 nM with Hepatitis C virus [2], 60 nM with Hepatitis C virus [3] and 50 nM in the series on Hepatitis C virus [5].
In the case of `CC(C)(C)NC(=O)N[C@H](C(=O)N1C[C@H]2[C@@H]([C@H]1C(=O)NC(CC1CCC1)C(=O)C(N)=O)C2(C)C)C(C)(C)C` (some centres undefined) [BOCEPREVIR], the half-maximal cytotoxic concentration (CC50) at 72 h in series [1], in series [4], in series [7] and in series [8] was greater than 33000 nM each time. For the same compound, the results for the EC50 with Hepatitis C virus [2] and in the series on Hepatitis C virus [6] were 2000 nM and 130 nM, respectively.
Regarding `C/C=C/C[C@@H](C)[C@@H](O)[C@H]1C(=O)N[C@@H](CC)C(=O)N(C)CC(=O)N(C)[C@@H](CC(C)C)C(=O)N[C@@H](C(C)C)C(=O)N(C)[C@@H](CC(C)C)C(=O)N[C@@H](C)C(=O)N[C@H](C)C(=O)N(C)[C@@H](CC(C)C)C(=O)N(C)[C@@H](CC(C)C)C(=O)N(C)[C@@H](C(C)C)C(=O)N1C` [CYCLOSPORINE], the EC50 with Hepatitis C virus [2] was determined as 300 nM; in the series on Hepatitis C virus [3] it was 300 nM; with Hepatitis C virus [5], 240 nM; in the series on Hepatitis C virus [6], 500 nM.
Regarding `CNC(=O)c1c(-c2ccc(F)cc2)oc2cc(N(CCO)S(C)(=O)=O)c(C3CC3)cc12` [NESBUVIR], the CC50 at 72 h in series [1], in series [4], in series [7] and in series [8] was greater than 33000 nM throughout. For the same compound, the EC50 in the series on Hepatitis C virus [2] came to 4 nM; in the series with Hepatitis C virus [3], 19 nM; with Hepatitis C virus [5] it was 20 nM; with Hepatitis C virus [6] it was 30 nM.
As to `Brc1c(Br)c(Br)c2[nH]nnc2c1Br` [TETRABROMOBENZOTRIAZOLE], the 50% cytotoxic concentration (CC50) at 72 h in series [1], in series [4], in series [7] and in series [8] was greater than 100000 nM each time. Besides, the EC50 came out at 61000 nM in the series with Hepatitis C virus [2], 40000 nM with Hepatitis C virus [3], 43000 nM in the series with Hepatitis C virus [5] and 65000 nM in the series on Hepatitis C virus [6].
Take `O=C(O)c1cccs1` [THIOPHENE CARBOXYLIC ACID]: the half-maximal cytotoxic concentration (CC50) at 72 h in series [1], in series [4], in series [7] and in series [8] was greater than 33000 nM throughout.

Usually CC50 stands for the concentration that lowers cell viability or growth by half. Read a high CC50 as better tolerance by the cells. As usually defined, the EC50 is the concentration needed to bring the measured effect to its halfway point.

These data come from ChEMBL document CHEMBL1671625, “Comparative in vitro anti-hepatitis C virus activities of a selected series of polymerase, protease, and helicase inhibitors” (Antimicrob Agents Chemother, 2008).
